Measurements taken from article PMC7617869, “Molecular glues that inhibit deubiquitylase activity and inflammatory signaling” (Nature Structural & Molecular Biology, 2025).
Where “and” joins values, the source holds several entries; their conditions need not be identical. Equal values may be shown once.

Key:
BRISC = molecular target: T1, BRISC (Homo sapiens, UniProt P46736+Q15018+Q9NXR7); experiment: BRISC DUB activity assay (IQF K63-linked diubiquitin); format: biochemical; settings: for Normalised V0: replicate columns
T1 construct: made in house; host or cells: Spodoptera frugiperda (Sf9) insect cells, MultiBac
Experimental: IQF assays were performed in DUB reaction buffer containing 50 mM HEPES–NaOH pH 7.0, 100 mM NaCl, 0.1 mg ml^−1 BSA, 1 mM DTT and 0.03% v/v Brij-35. […] The final concentration of BRISC WT, all BRISC mutants, HsBRISCΔLoop, MmBRISC and DrBRISCΔNΔC was 1 nM. Other enzymes were tested at the following concentrations: 5 nM ARISC (FL), 10 nM CfBRISCΔNΔC, 250 nM AMSH* (ref. [43]), 500 nM USP2 and 1 μM trypsin (Sigma, 9002-07-7). For Michaelis–Menten experiments, 1 nM BRISC with 0–1 μM IQF K63-linked diubiquitin substrate was used. Michaelis–Menten analyses and Lineweaver–Burk plots were calculated using GraphPad Prism (version 9.0).
To assess enzymatic activity, BRISC complexes were diluted to concentrations between 1 nM and 50 nM. […] Then, 20-μl enzyme reactions were carried out in 384-well black flat-bottom low-flange plates (Corning, 35373). DUB activity was measured using IQF K63-linked diubiquitin (LifeSensors, DU6303) at 50 nM. Cleaved diubiquitin was monitored by measuring fluorescence intensity (excitation, 544 nm; emission, 575 nm; dichroic mirror, 560 nm). Fluorescence intensity was measured every minute for 30 min at 30 °C. Fluorescence intensity units were plotted against time to generate a linear reaction progress curve, where the initial velocity (V0) corresponds to the gradient of the curve (typically achieved within 15 min). IC50 values were calculated using the GraphPad Prism (version 9.0) built-in dose–response equation for inhibitor concentration versus response (variable slope).

[1] = tested on: IFNAR1 cell surface levels in sgROSA MCF10A cells; experiment: MCF10A sgROSA IFNAR1 cell surface levels (FACS); format: cell-based, human; settings: IFN + compound; three replicates
Experimental: To study the direct effect of BRISC DUB inhibitors, IFNAR1 surface levels were measured using flow cytometry (FACS) analysis. For this purpose, MCF10A WT and MCF10A BRCC45 KO cells expressing […]
BRCC45 WT or BRCC45 R137A were used. […]
minutes prior to the addition of 50 ng/mL of hIFN-Iα for various time points (45 minutes and 90 minutes).
After IFN treatment, cells were dissociated from plate using cell dissociation Buffer (ThermoFisher Scientific, #13150016) and were stained with LIVE/DEAD™ Fixable Violet Dead Cell Stain Kit, for 405 nm excitation (ThermoFisher Scientific, #L34963) for 30 minutes, as per the kit protocol. The cells were then washed using FACS buffer (DPBS, 1% BSA, 2 mM EDTA, 0.09% sodium azide) and transferred to 96-well round bottom plates. Resuspended cells were divided into three repeats for each sample, each was surface stained for 1 hour at 4 °C with: 1. Human IFN-alpha/beta R1 Antibody (R&D systems, #MAB245), 2. Mouse IgG1 Isotype Control (R&D systems, #MAB002), 3. FACS buffer (control cells).
Following incubation, cells were washed once with FACS buffer and were labelled for 30 minutes at 4 °C with either Biotin-SP-conjugated AffiniPure Donkey Anti-Mouse IgG (H+L) (Jackson Immunoresearch Laboratories) for samples 1 and 2 or with FACS buffer for sample 3. Cells were washed twice with FACS buffer and were labelled for 15 minutes at 4 °C with either R-Phycoerythrin-conjugated Streptavidin (Jackson Immunoresearch Laboratories) for samples 1 and 2 or with FACS buffer for sample 3. Cells were washed 3 times with FACS buffer and were analysed by FACS (MACSQuant, Miltenyi Biotec). For each sample from group 1 the Geo mean fluorescence intensity (MFI) of its isotype sample was reduced. IFNAR1 cell surface percentage was calculated by 100*(MFI

## Cn1cc(NC(=O)c2c(Cl)cccc2Cl)c(C(=O)NC2CCN(C(=O)c3c(Cl)cccc3Cl)CC2)n1 [AP-5-145]
BRISC; IQF diubiquitin assay
  inhibition of BRISC DUB activity (in words): no inhibitory effect
BRISC; [Inhibitor] 0.013 μM
  Normalised V0: 0.9159 and 1.143 and 0.9058 and 0.9388
BRISC; [Inhibitor] 0.02 μM
  Normalised V0: 0.9923 and 1.0109
BRISC; [Inhibitor] 0.0399999 μM
  Normalised V0: 0.8997 and 0.9429
BRISC; [Inhibitor] 0.0599997 μM
  Normalised V0: 0.9873 and 1.113
BRISC; [Inhibitor] 0.0799994 μM
  Normalised V0: 0.9492 and 1.054
BRISC; [Inhibitor] 0.119998 μM
  Normalised V0: 0.9627 and 1.064
BRISC; [Inhibitor] 0.199996 μM
  Normalised V0: 0.9243 and 0.9333
BRISC; [Inhibitor] 0.499975 μM
  Normalised V0: 0.9206 and 1.055
BRISC; [Inhibitor] 0.799936 μM
  Normalised V0: 0.5226 and 1.107
BRISC; [Inhibitor] 1.25984 μM
  Normalised V0: 0.877 and 1.051
BRISC; [Inhibitor] 1.9996 μM
  Normalised V0: 0.8804 and 1.0497
BRISC; [Inhibitor] 3.159 μM
  Normalised V0: 0.8796 and 0.9314
BRISC; [Inhibitor] 5.19739 μM
  Normalised V0: 1.075 and 0.9343
BRISC; [Inhibitor] 7.99364 μM
  Normalised V0: 0.9828 and 1.083
BRISC; [Inhibitor] 12.7839 μM
  Normalised V0: 1.017 and 1.039
BRISC; [Inhibitor] 19.96 μM
  Normalised V0: 1.018 and 0.9724
BRISC; [Inhibitor] 31.4999 μM
  Normalised V0: 0.9031 and 1.019
BRISC; [Inhibitor] 50.147 μM
  Normalised V0: 0.9135 and 0.9224
BRISC; [Inhibitor] 79.7601 μM
  Normalised V0: 0.8955 and 0.9782
BRISC; [Inhibitor] 125.99 μM
  Normalised V0: 0.8989 and 0.9064
BRISC; [Inhibitor] 199.922 μM
  Normalised V0: 0.8256 and 0.9679
[1]
  IFNAR1 cell surface levels: 50.5911 and 49.9799 and 55.4831
